Measured values taken from US4379148A, “Analgesic and anti-inflammatory composition” (priority 1981, dated 1983).
Entries after “also recorded” stand apart in the source; their conditions may differ. Read-outs that look alike come from different tables or passages of the source.

Tests used:
[1] = Analgesic Test by Phenylquinone Writhing Method; format: in vivo, Male ddY mice; details: for ED50: Mus musculus, po, read-out: ED50 (dose that reduced the number of writhes of the control group by 50%), drug alone; for combined analgesic effect with emorfazone: combination with emorfazone, in words; for ED50 dose obtained experimentally, with emorfazone 10 / theoretical additive ED50 dose, with emorfazone 10 / ED50 dose obtained experimentally, with emorfazone 20 / theoretical additive ED50 dose, with emorfazone 20: p.o.; for ED50 dose obtained experimentally, with emorfazone 10: combined with emorfazone 10 mg/kg (1/4 of its ED50); for theoretical additive ED50 dose, with emorfazone 10: combined with emorfazone 10 mg/kg; for ED50 dose obtained experimentally, with emorfazone 20: combined with emorfazone 20 mg/kg (1/2 of its ED50); for theoretical additive ED50 dose, with emorfazone 20: combined with emorfazone 20 mg/kg
Procedure: Male ddY mice (18-22 g) fasted for 18 hours were divided into test groups and a control group of 7 animals per group. […] The number of writhes was counted for 20 minutes after the p-phenylquinone injection.

[2] = Analgesic Test by Randall-Selitto Method (carrageenin inflammatory pain); format: in vivo, Male Wistar rats; details: for ED50: Rattus norvegicus, po, read-out: ED50 (dose that increased the mean pain threshold of the control group by 50%), drug alone; for ED50 dose obtained experimentally, with emorfazone 4.5 / theoretical additive ED50 dose, with emorfazone 4.5 / theoretical additive ED50 dose, with emorfazone 9 / ED50 dose obtained experimentally, with emorfazone 9: p.o.; for ED50 dose obtained experimentally, with emorfazone 4.5 / theoretical additive ED50 dose, with emorfazone 4.5: combined with emorfazone 4.5 mg/kg; for theoretical additive ED50 dose, with emorfazone 9 / ED50 dose obtained experimentally, with emorfazone 9: combined with emorfazone 9 mg/kg
Procedure: Male Wistar rats (120-140 g) fasted for 18 hours were divided into test groups and a control group of 5 animals per group. […] The pain threshold was measured after the carrageenin injection at hourly intervals for 3 hours with an analgesy meter (Ugo Basile, Milan).

[3] = Anti-inflammatory Test by Whittle's Method (acetic acid, dye in peritoneal exudate); format: in vivo, Male ddY mice
Procedure: Male ddY mice (18-22 g) fasted for 18 hours were divided into test groups and a control group of 7 or 8 animals each. […] Ten minutes later, 10 ml/kg of 0.7% acetic acid dissolved in physiological saline was injected intraperitoneally into all animals and 20 minutes thereafter the animals were sacrificed. The amount of the dye in the peritoneal exudate was determined at 590 nm by using a spectrophotometer (Hitachi Instrument Co.). The ED30 was defined as the dose which decreased the amount of dye of the control group by 30%, and was determined graphically.

[4] = p.o., combined with emorfazone 240 mg/kg
in vivo = details: mouse, po
[5] = in words; for inhibitory effect in combination with emorfazone: combination with 100 mg/kg of emorfazone
Procedure: Female Sprague-Dawley rats (180-220 g) were used. […] On day 0 of the test, the adjuvant containing 0.6 mg of Mycobacterium butylicum (Difco) in 0.1 ml of liquid paraffin was injected into the plantar surface of the right hind paw. The test drugs were administered orally once a day for 15 days. The severity of inflammation of the 4 paws and the tail of each rat was evaluated visually at day 30 and scored by a point system. The grading for each lesion was on a 0 to 3 scale with 0 indicating absence of inflammation and 3 indicating maximum inflammation.

[6] = system: biosynthesis of prostaglandin; assay: inhibition of the biosynthesis of prostaglandin; format: biochemical; details: in words
[7] = p.o.; combined with emorfazone 28.8 mg/kg
[8] = p.o.; combined with emorfazone 28.8 mg/kg; theoretical additive dose
[9] = p.o.; combined with emorfazone 86 mg/kg
[10] = p.o.; combined with emorfazone 86 mg/kg; theoretical additive dose
[11] = LD50 dose obtained experimentally, with emorfazone 240, p.o., combined with emorfazone 240 mg/kg
[12] = Mus musculus, po; read-out: ED30 (dose which decreased the amount of dye of the control group by 30%), drug alone

SMILES	ED50 [1] [mg/kg]	combined analgesic effect with emorfazone [1]	ED50 dose obtained experimentally, with emorfazone 10 [1] [mg/kg]	theoretical additive ED50 dose, with emorfazone 10 [1] [mg/kg]	ED50 dose obtained experimentally, with emorfazone 20 [1] [mg/kg]	theoretical additive ED50 dose, with emorfazone 20 [1] [mg/kg]	ED50 [2] [mg/kg]	ED50 dose obtained experimentally, with emorfazone 4.5 [2] [mg/kg]	theoretical additive ED50 dose, with emorfazone 4.5 [2] [mg/kg]	theoretical additive ED50 dose, with emorfazone 9 [2] [mg/kg]	ED30 dose obtained experimentally, with emorfazone 28.8 [3, 7] [mg/kg]	theoretical additive ED30 dose, with emorfazone 28.8 [3, 8] [mg/kg]	ED30 dose obtained experimentally, with emorfazone 86 [3, 9] [mg/kg]	theoretical additive ED30 dose, with emorfazone 86 [3, 10] [mg/kg]	theoretical additive LD50 dose, with emorfazone 240 [4] [mg/kg]	LD50 at 168 h (in vivo) [mg/kg]	LD50 at 168 h (in vivo; [11]) [mg/kg]	inhibitory effect in combination with emorfazone [5]	ED50 dose obtained experimentally, with emorfazone 9 [2] [mg/kg]	ED30 [3, 12] [mg/kg]	further results
CC(C(=O)O)c1ccc(-c2ccccc2)c(F)c1 (stereo not shown) [Flurbiprofen]	2	for the most part a synergistic response	6.2	8	0.8	1	22	15	16.5	11	2.8	3.0	1.9	2	157.5	210	155	significantly potentiated			ED30 ([3]; Mus musculus, po, read-out: ED30 (dose which decreased the amount of dye of the control group by 30%), drug alone): 4 mg/kg
CC(C)Cc1ccc(C(C)C(=O)O)cc1 (stereo not shown) [Ibuprofen]	13.5	for the most part a synergistic response	8	10.1	3	6.8	120	10	90	60	56	57	37	38	862.5			significantly potentiated	8	76	
CC(=O)Oc1ccccc1C(=O)O [Acetylsalicylic acid, acetylsalicylic acid]	155	for the most part a synergistic response	115	116.3	40	77.5	340	240	255	170	160	168.8	110	112.5	945	1260	1000	not essentially affected	70	225	
CC(C(=O)O)c1cccc(C(=O)c2ccccc2)c1 (stereo not shown) [Ketoprofen]	0.5	for the most part a synergistic response	0.37	0.38	0.23	0.25	6	3	4.5	3	2.2	2.4	1.3	1.6		305	380	significantly potentiated	1	3.2	
Cc1cccc(Nc2ccccc2C(=O)O)c1C [Mefenamic acid]	36	for the most part a synergistic response	21	27	13	18	120	58	90	60	60	61.5	41	41	892.5			significantly potentiated	20	82	
CCCCC1C(=O)N(c2ccccc2)N(c2ccccc2)C1=O [Phenylbutazone]	66	potentiated by the emorfazone; also recorded: for the most part a synergistic response	32	49.5	16	33	125	22	93.8	62.5	130	131.3	86	87.5	427.5			not essentially affected	19	175	
COc1ccc2cc([C@H](C)C(=O)O)ccc2c1 [Naproxen]	9	for the most part a synergistic response	6.2	6.3	4.1	4.5	240	160	180	120	8.5	9	5.8	6				significantly potentiated	60	12	
COc1ccc2c(c1)c(CC(=O)O)c(C)n2C(=O)c1ccc(Cl)cc1 [Indomethacin]	0.52	for the most part a synergistic response	0.33	0.39	0.18	0.26	6.8	0.8	5.1	3.4	1.6	1.65	1	1.1	8.5	11.3	13	significantly potentiated	0.3	2.2	
CCOc1c(N2CCOCC2)cnn(C)c1=O [Emorfazone, 4-ethoxy-2-methyl-5-morpholino-3(2H)-pyridazinone]	40						18													115	inhibition of the biosynthesis of prostaglandin (emorfazone) [6]: does not inhibit the biosynthesis of prostaglandin; inhibitory effect of emorfazone alone ([5]; 100 mg/kg, used alone): did not show any significant effect when used alone
